Measured values as given in ChEMBL document CHEMBL1201862, “PubChem BioAssay data set” (2004).
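Method: 48-hour compound exposure of cells in 96-well plates, five concentrations, linear interpolation of endpoints. GI50 = concentration required for 50% inhibition of growth.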 Active and inactive are the calls of the source. No stated cut-off is given here; in the data, active = GI50 up to about 1.1 µM and inactive = higher.

Experiments:
Test in all cases: NCI tumour cell line growth inhibition, 48 h
SK-MEL-2 = test system: SK-MEL-2
SK-MEL-5 = test system: SK-MEL-5
KM-20L2 = test system: KM-20L2
COLO 205 = test system: COLO 205
RPMI-8226 = test system: RPMI-8226
SN12C = test system: SN12C
A498 = test system: A498
UACC-257 = test system: UACC-257
SF-295 = test system: SF-295
NCI-H23 = test system: NCI-H23
DLD-1 = test system: DLD-1
MOLT-4 = test system: MOLT-4
ACHN = test system: ACHN
OVCAR-8 = test system: OVCAR-8
UACC-62 = test system: UACC-62
DMS-273 = test system: DMS-273
TK-10 = test system: TK-10
U-251 = test system: U-251
LOX IMVI = test system: LOX IMVI

Measured: GI50

Cc1n[nH]c(N)c1C(N)=O
inactive: SK-MEL-2 > 100 µM | SK-MEL-5 > 100 µM | KM-20L2 > 100 µM | COLO 205 > 100 µM | RPMI-8226 > 100 µM | SN12C > 100 µM | A498 > 100 µM | UACC-257 > 100 µM | SF-295 > 100 µM | NCI-H23 > 100 µM | DLD-1 > 100 µM | MOLT-4 > 100 µM | ACHN > 100 µM | OVCAR-8 > 100 µM | UACC-62 > 100 µM | DMS-273 > 100 µM | TK-10 > 100 µM | U-251 > 10 µM | LOX IMVI > 100 µM
